# In publication PMC6562126, “Identification and characterization of a carnitine transporter in Acinetobacter baumannii” (MicrobiologyOpen, 2018):
# Assays:
# Aci01347 [1] = molecular target: T1, Aci01347 (Acinetobacter baumannii, UniProt D0C9N4); assay: […]-choline uptake in E. coli MKH13 expressing Aci01347; assay type: cell-based; conditions: 500 µM substrate; KPi 25 mM pH 7.5, 0.2 osmol/kg, 37 °C, glucose-energised cells; labelled compound
# T1 construct: gene HMPREF0010_01347; N-terminal His6 tag, pBAD/HisA; expressed in E. coli MKH13 (no compatible solute transporters)
# T1 sequence (D0C9N4 1-550): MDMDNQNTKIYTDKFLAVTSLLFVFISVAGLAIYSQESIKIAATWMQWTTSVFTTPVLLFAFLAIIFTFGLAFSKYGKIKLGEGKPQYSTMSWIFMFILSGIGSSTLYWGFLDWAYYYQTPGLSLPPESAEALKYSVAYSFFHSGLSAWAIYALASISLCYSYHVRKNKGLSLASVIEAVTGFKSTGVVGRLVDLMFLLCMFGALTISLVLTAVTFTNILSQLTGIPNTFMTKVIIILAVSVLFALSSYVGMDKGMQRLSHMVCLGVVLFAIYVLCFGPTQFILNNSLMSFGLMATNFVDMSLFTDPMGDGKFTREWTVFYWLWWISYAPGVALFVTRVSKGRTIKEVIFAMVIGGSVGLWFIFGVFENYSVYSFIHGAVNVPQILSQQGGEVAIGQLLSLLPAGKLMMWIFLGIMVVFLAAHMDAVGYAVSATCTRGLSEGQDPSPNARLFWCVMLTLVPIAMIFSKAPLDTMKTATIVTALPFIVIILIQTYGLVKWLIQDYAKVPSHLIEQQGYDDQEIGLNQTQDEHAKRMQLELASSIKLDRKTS
# Aci01347 [2] = molecular target: T1, Aci01347; assay: competition with […]-choline uptake in E. coli MKH13 expressing Aci01347; assay type: cell-based; conditions: read-out: % inhibition at 0.5 mM
SMILES,[14C]-choline uptake in E. coli MKH13 expressing Aci01347 (Aci01347 [1]),inhibition at 500 µM (Aci01347 [2])
"C[N+](C)(C)CCO [choline, 2-hydroxyethyl trimethylammonium chloride]",These data demonstrate that Aci01347 translocates choline.,
CC1=NCC[C@@H](C(=O)O)N1 [ectoine],,9.2%
C[N+](C)(C)CC(=O)[O-] [glycine betaine],,14.5%
C[N+]1(C)CCC[C@H]1C(=O)[O-] [proline betaine],,2.4%
O=C(O)[C@@H]1CCCN1 [proline],,4.6%
